Results published in patent publication US20100227845A1, “SUBSTITUTED 1,2,4-OXADIAZOLES AND ANALOGS THEREOF AS CB2 RECEPTOR MODULATORS, USEFUL IN THE TREATMENT OF PAIN, RESPIRATORY AND NON-RESPIRATORY DISEASES” (priority 2007, published 2010).
Read-outs that look alike come from different tables or passages of the source.

Columns and labels:
human CB2 = human CB2 (Homo sapiens, UniProt P34972); experiment: Cyclic AMP assay (HTRF), CHO cells expressing human CB2; assay type: cell-based
Experimental: (§1) Chinese Hamster Ovary cells (CHO) expressing human CB1 or human CB2 (3.3×10^5 cells/ml) were preincubated for 15 min at room temperature with tested agonist and 3-isobutyl-1-methylxanthine (IBMX; 200 μM) in phosphate buffered saline containing 1 mg/ml BSA (assay buffer) followed by 30 min incubation with forskolin in a total volume of 10 μl. The optimal forskolin concentration for each cell line was established in a separate experiment and adjusted to stimulate 70% of maximal cAMP response. cAMP content was measured using an HTRF assay (CisBio) according to the manufacturer's two step protocol.

human CB1 = human CB1 (Homo sapiens, UniProt P21554); experiment: Cyclic AMP assay (HTRF), CHO cells expressing human CB1; assay type: cell-based
Experimental: as §1

[1] = IP of tested agonist, CHO cells expressing human CB2, forskolin-stimulated cAMP, HTRF, read-out: CB2 (HTRF)
[2] = IP of tested agonist, CHO cells expressing human CB1, forskolin-stimulated cAMP, HTRF, read-out: CB1 (HTRF)

human CB2, sequence (P34972 whole entry): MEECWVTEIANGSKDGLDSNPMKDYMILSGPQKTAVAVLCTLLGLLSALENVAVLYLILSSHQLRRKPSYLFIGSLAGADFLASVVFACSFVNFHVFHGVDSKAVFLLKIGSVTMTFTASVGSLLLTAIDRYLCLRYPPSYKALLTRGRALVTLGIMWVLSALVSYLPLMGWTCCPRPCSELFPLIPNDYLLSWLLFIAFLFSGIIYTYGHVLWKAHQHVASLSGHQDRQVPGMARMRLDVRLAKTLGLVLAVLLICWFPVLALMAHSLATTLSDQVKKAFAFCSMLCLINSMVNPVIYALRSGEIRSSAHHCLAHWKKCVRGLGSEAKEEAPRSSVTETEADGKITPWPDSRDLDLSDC
human CB1, sequence (P21554 whole entry): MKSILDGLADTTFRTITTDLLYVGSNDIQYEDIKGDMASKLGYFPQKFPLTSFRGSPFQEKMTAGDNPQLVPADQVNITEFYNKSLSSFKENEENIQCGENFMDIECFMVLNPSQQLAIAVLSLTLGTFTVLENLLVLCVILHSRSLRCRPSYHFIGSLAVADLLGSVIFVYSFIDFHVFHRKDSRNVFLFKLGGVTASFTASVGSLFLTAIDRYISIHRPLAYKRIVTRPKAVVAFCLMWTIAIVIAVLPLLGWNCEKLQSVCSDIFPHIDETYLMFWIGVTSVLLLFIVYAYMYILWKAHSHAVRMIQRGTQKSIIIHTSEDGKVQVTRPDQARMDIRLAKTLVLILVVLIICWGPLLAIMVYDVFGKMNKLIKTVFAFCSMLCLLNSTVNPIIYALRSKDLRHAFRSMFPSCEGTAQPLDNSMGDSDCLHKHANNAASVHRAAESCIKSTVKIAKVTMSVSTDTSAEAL

| Compound | EC50 (human CB2; [1]) [nM] | EC50 (human CB1; [2]) [nM] | EC50 (human CB2) [nM] | EC50 (human CB1) [nM] |
| --- | --- | --- | --- | --- |
| CCCCOc1ncccc1-c1nc(-c2ccc(Cl)cc2)no1 [Example I-3] | – | – | 85 | > 17000 |
| CCCCOc1ncccc1-c1nc(-c2cccc(Cl)c2Cl)no1 [Example I-4] | – | – | 3 | 309 |
| CCCCOc1ncccc1-c1nc(-c2c(Cl)cccc2Cl)no1 [Example I-5] | – | – | 4 | 114 |
| CS(=O)(=O)C1CCN(c2ncccc2-c2cc(-c3cccc(F)c3)n[nH]2)CC1 [Example V-4] | 68 | 8750 | – | – |
| NC(=O)C1CCN(c2ncccc2-c2cc(-c3cccc(F)c3)n[nH]2)CC1 [Example V-5] | 717 | > 17000 | – | – |
| COCCOc1ncccc1-c1nc(-c2cccc(Cl)c2)no1 [II-2] | 272 | > 17000 | – | – |
| CC(C)(C)COc1ncccc1-c1nc(-c2cccc(Cl)c2)no1 [II-5] | 508 | > 17000 | – | – |
| CCCCOc1ncccc1-c1nc(-c2ccccc2)c[nH]1 [III-2] | 900 | > 17000 | – | – |

Second part, led by results:

| EC50 (human CB2; [1]) [nM] | EC50 (human CB1; [2]) [nM] | Compound | EC50 (human CB2) [nM] | EC50 (human CB1) [nM] |
| --- | --- | --- | --- | --- |
| 109 | > 17000 | CCCCOc1ncccc1-c1nc(-c2ccc(C(F)(F)F)cc2)c[nH]1 [III-3] | – | – |
| 110 | > 17000 | CCCCOc1ncccc1-c1nc2ccccc2[nH]1 [IV-2] | – | – |
| 258 | > 17000 | N#Cc1ccc(-c2ncccc2-c2nc3cc(Cl)c(Cl)cc3[nH]2)cc1 [IV-5] | – | – |
